Results reported in patent US20240285571A1, “METHODS OF TREATING BONE INFECTIONS” (MICROBION CORPORATION, priority 2020, published 2024).
≈ marks a conversion by molar mass, not a printed value. Like-named read-outs stand apart in the source and are kept apart here.

Columns and labels:
S. aureus ATCC 29213 = settings: per CLSI M100-S24 or provided by Microbion; cited from earlier work
[1] = system: baseline pathogens at the surgical site; experiment: Phase 2a study: microbiological success / post-baseline microbiology at the index site; assay type: in vivo, human; settings: Subject 001-002; Subject 006-003, S. aureus (MRSA); 0.5 μg/cm^2 dose group
Experimental: Microbiology was assessed on Day 1 and at the time of any subsequent surgical procedure at the index site. Samples were collected from the infected bone site or involved tissue adjacent to any implant(s), swabs of the deep infection site, and the superficial tissue/wound closure/sinus tract site. Isolation and identification of aerobic and anerobic bacteria was conducted at a central microbiology laboratory (IHMA, Schaumburg, IL) and susceptibility of the isolates to MBN-101 (BisEDT) and comparator agents was performed per Clinical and Laboratory Standards Institute (CLSI). Parallel sets of samples were analyzed by the local clinical site laboratory to guide patient antibiotic treatment.
Clinical activity of locally administered MBN-101 was assessed by the following: • Proportion of treatment failures. […] Pain intensity at the surgical site was assessed by VAS (0 to 10 scale). • Findings of microbiology evaluations at the surgical site. Microbiologic success was assessed by clearance of infection. • Findings of radiographic evaluations at the surgical site. Radiographic success was assessed by healing on radiologic examination. • Change in serologic markers CRP and ESR at each post-baseline time point. […]

[2] = system: relevant ATCC QC organisms; settings: CLSI established QC range, cited from earlier work
E. coli ATCC 25922 = settings: per CLSI M100-S24 or provided by Microbion; cited from earlier work
N. gonorrhoeae = N. gonorrhoeae MMX 683 (ATCC 49226); cited from earlier work
C. difficile [3] = settings: C. difficile MMX 4381 (ATCC 700057); cited from earlier work
B. fragilis [4] = experiment: Agar dilution MIC, anaerobes (Example 5); assay type: cell-based; settings: Bacteroides fragilis, ATCC25285; B. fragilis MMX 123 (ATCC 25285); QC; read-out: MIC
C. difficile [5] = experiment: Agar dilution MIC, anaerobes (Example 5); assay type: cell-based, Clostridium difficile; settings: Clostridioides difficile, read-out: MIC
B. fragilis [6] = settings: B. fragilis MMX 123 (ATCC 25285); cited from earlier work
E. cloacae = experiment: Broth microdilution MIC (Example 5); assay type: cell-based, Enterobacter cloacae; settings: E. cloacae MMX 5981 (ATCC BAA-2468); NDM-1
Experimental: (§1) Test and Comparator Agents: The test agents were stored at room temperature until assayed. […] The stock solutions were allowed to stand for at least 1 hr prior to use to auto-sterilize.
(§2) TestMedia: Test media were prepared and stored in accordance with guidelines from CLSI (4, 6, 7).
Broth Microdilution MC Testing (Aerobic Bacteria and Yeast): The broth microdilution assay method employed for the susceptibility testing of aerobic bacteria (excluding N. gonorrhoeae which was evaluated by agar dilution) and yeast essentially followed the procedures described by CLSI (3, 4, 7, 8) and employed automated liquid handlers to conduct serial dilutions and liquid transfers. […] These would become the ‘mother plates’ from which ‘daughter’ or test plates would be prepared. The drugs (300 μL at 40× the desired top concentration in the test plates) were dispensed into the appropriate well in Column 1 of the mother plates. The Biomek 2000 was used to make serial two-fold dilutions through Column 11 in the “mother plate”. […]
Plates were stacked 4 high, covered with a lid on the top plate, placed into plastic bags, and incubated at 35° C. for approximately 24-48 hr for all yeast isolates and 16-24 hr for aerobic bacteria. […] MIC endpoints for the test agents and control compounds were read per CLSI criteria (3, 7).

E. coli [7] = settings: E. coli MMX 102 (ATCC 25922); cited from earlier work
P. aeruginosa [8] = experiment: Broth microdilution MIC (Example 5); assay type: cell-based, Pseudomonas aeruginosa
Experimental: as §1, §2
(§3) Broth Microdilution MC Testing (Aerobic Bacteria and Yeast): The broth microdilution assay method employed for the susceptibility testing of aerobic bacteria (excluding N. gonorrhoeae which was evaluated by agar dilution) and yeast essentially followed the procedures described by CLSI (3, 4, 7, 8) and employed automated liquid handlers to conduct serial dilutions and liquid transfers. […] These would become the ‘mother plates’ from which ‘daughter’ or test plates would be prepared. The drugs (300 μL at 40× the desired top concentration in the test plates) were dispensed into the appropriate well in Column 1 of the mother plates. The Biomek 2000 was used to make serial two-fold dilutions through Column 11 in the “mother plate”. The wells of Column 12 contained no drug and ultimately served as the organism growth control wells.
(§4) The daughter plates were prepared using the Biomek FX which transferred 5 μL of drug solution from each well of a mother plate to the corresponding well of the correct daughter plate in a single step.
(§5) A standardized inoculum of each organism was prepared per CLSI methods (3, 7). Isolated colonies of each test isolate were picked from the primary plate and a suspension was prepared to equal a 0.5 McFarland turbidity standard. Standardized suspensions were then diluted […] (1:100 for yeast, 1:20 for bacteria). After dilution, the inoculum suspensions were then transferred to compartments of sterile reservoirs divided by length (Beckman Coulter), and the Biomek 2000 was used to inoculate all plates. Daughter plates were placed on the Biomek 2000 in reverse orientation so that plates were inoculated from low to high drug concentration.
(§6) The Biomek 2000 delivered 10 μL of standardized inoculum into each well of the appropriate daughter plate for an additional 1:20 dilution.
(§7) Plates were stacked 4 high, covered with a lid on the top plate, placed into plastic bags, and incubated at 35° C. for approximately 24-48 hr for all yeast isolates and 16-24 hr for aerobic bacteria. Plates were viewed from the bottom using a plate viewer. […] MIC endpoints for the test agents and control compounds were read per CLSI criteria (3, 7).

E. coli [9] = experiment: Broth microdilution MIC (Example 5); assay type: cell-based, Escherichia coli
Experimental: as §1, §2, §3, §4, §5, §6, §7

S. aureus = experiment: Broth microdilution MIC (Example 5); assay type: cell-based, Staphylococcus aureus
Experimental: as §1, §2, §3, §4, §5, §6, §7

K. pneumoniae = experiment: Broth microdilution MIC (Example 5); assay type: cell-based, Klebsiella pneumoniae
Experimental: as §1, §2, §3, §4, §5, §6, §7

P. aeruginosa [10] = settings: P. aeruginosa MMX 103 (ATCC 27853); cited from earlier work
E. faecalis = experiment: Broth microdilution MIC (Example 5); assay type: cell-based, Enterococcus faecalis; settings: VRE
Experimental: as §1, §2, §3, §4, §5, §6, §7

E. faecium = experiment: Broth microdilution MIC (Example 5); assay type: cell-based; settings: VRE vanA
Procedure, shortened: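 Endpoints are read from the plate bottom per CLSI criteria after 16-24 hr at 35° C. The isolates are tested by broth microdilution against two-fold drug dilution series, with inocula standardized to a 0.5 McFarland suspension.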

A. baumannii = experiment: Broth microdilution MIC (Example 5); assay type: cell-based, Acinetobacter baumannii
Experimental: as §1, §2, §3, §4, §5, §6, §7

[11] = ATCC700057, C. difficile MMX 4381 (ATCC 700057), QC, CCI
[12] = C. difficile MMX 8272, ribotype 255, CCI
[13] = C. difficile MMX 8279, ribotype 005, CCR
[14] = C. difficile MMX 8281, ribotype 010, CCR
[15] = NCTC13307, C. difficile MMX 5681 (NCTC 13307), ribotype 012, CCR
[16] = NCTC13336, C. difficile MMX 5680 (NCTC 13336), ribotype 027, CCI METR

C1C[S][Bi]([S]CC[S][Bi]2[S]CC[S]2)[S]1 [BisEDT, bismuth-1,2-ethanedithiol]
MIC, acceptable range (S. aureus ATCC 29213): 0.13 to 1 µg/mL | MIC, expected results (S. aureus ATCC 29213): 0.25 to 0.5 µg/mL | Change of BisEDT MIC, baseline vs post-baseline isolates from the same source [1]: unchanged | MIC QC range (in parentheses) ([2]; E. coli ATCC 25922): (0.5-4)1 μg/mL | MIC QC range (in parentheses) ([2]; P. aeruginosa ATCC 27853): (0.5-4) μg/mL | MIC QC range (in parentheses) ([2]; S. aureus ATCC 29213): (0.12-1) μg/mL | MIC, acceptable range (E. coli ATCC 25922): 0.5 to 2 µg/mL | MIC, expected results (E. coli ATCC 25922): 1 µg/mL

CO/N=C(\C(=O)N[C@@H]1C(=O)N2C(C(=O)O)=C(CSc3nc(=O)c(=O)[nH]n3C)CS[C@H]12)c1csc(N)n1 [Ceftriaxone]
CLSI QC range of MIC (N. gonorrhoeae): (0.004-0.015) μg/mL

CCc1c(Cl)c(O)c(Cl)c(O)c1C(=O)O[C@H]1[C@H](O)[C@H](OC)[C@H](OC/C2=C\C=C\C[C@H](O)/C(C)=C/[C@H](CC)[C@@H](O[C@@H]3OC(C)(C)[C@@H](OC(=O)C(C)C)[C@H](O)[C@@H]3O)/C(C)=C/C(C)=C/C[C@@H]([C@@H](C)O)OC2=O)O[C@@H]1C [Fidaxomicin]
CLSI QC range of MIC (C. difficile [3]): (0.06-0.25) μg/mL | MIC (B. fragilis [4]): > 64 µg/mL | MIC (C. difficile [5]; [11]): 0.25 µg/mL (≈ 0.236 µM) | MIC (C. difficile [5]; [12]): 0.5 µg/mL (≈ 0.473 µM) | MIC (C. difficile [5]; [13]): 0.5 µg/mL (≈ 0.473 µM) | MIC (C. difficile [5]; [14]): 0.5 µg/mL (≈ 0.473 µM) | MIC (C. difficile [5]; [15]): 0.5 µg/mL (≈ 0.473 µM) | MIC (C. difficile [5]; [16]): 4 µg/mL (≈ 3.78 µM)

Cc1ncc([N+](=O)[O-])n1CCO [Metronidazole]
CLSI QC range of MIC (C. difficile [3]): (0.12-0.5) μg/mL | MIC (B. fragilis [4]): 0.5 µg/mL (≈ 2.92 µM) | MIC (C. difficile [5]; [11]): 0.5 µg/mL (≈ 2.92 µM) | MIC (C. difficile [5]; [12]): 0.5 µg/mL (≈ 2.92 µM) | MIC (C. difficile [5]; [13]): 0.5 µg/mL (≈ 2.92 µM) | MIC (C. difficile [5]; [14]): 8 µg/mL (≈ 46.7 µM) | MIC (C. difficile [5]; [15]): 0.5 µg/mL (≈ 2.92 µM) | MIC (C. difficile [5]; [16]): > 64 µg/mL | CLSI QC range of MIC (B. fragilis [6]): (0.25-1) μg/mL

Gentamicin [reference compound]
MIC (E. cloacae): >64 µg/mL | CLSI QC range of MIC (E. coli [7]): (0.25-1) μg/mL | MIC (P. aeruginosa [8]; P. aeruginosa MMX 103 (ATCC 27853), QC): 1 µg/mL | MIC (P. aeruginosa [8]; P. aeruginosa MMX 1381, MDR): 8 µg/mL | MIC (P. aeruginosa [8]; P. aeruginosa MMX 2562, MDR): 8 µg/mL | MIC (P. aeruginosa [8]; P. aeruginosa MMX 3991, MDR): 4 µg/mL | MIC (P. aeruginosa [8]; P. aeruginosa MMX 4654, IMP-7): >64 µg/mL | MIC (P. aeruginosa [8]; P. aeruginosa MMX 4697, VIM-2): 4 µg/mL | MIC (E. coli [9]; E. coli MMX 102 (ATCC 25922), QC): 1 µg/mL | MIC (E. coli [9]; E. coli MMX 5980 (ATCC BAA-2469), NDM-1): >64 µg/mL | MIC (E. coli [9]; E. coli MMX 8423, ESBL, LevR CAZR GmR): 64 µg/mL | MIC (E. coli [9]; E. coli MMX 8424, ESBL, CAZR): 0.25 µg/mL | MIC (E. coli [9]; E. coli MMX 8425, ESBL, LevR CAZR GmR): >64 µg/mL | MIC (S. aureus; S. aureus MMX 101 (ATCC 29213), QC, MSSA): 0.12 µg/mL | MIC (S. aureus; S. aureus MMX 5373, MRSA): 0.25 µg/mL | MIC (S. aureus; S. aureus MMX 6311, MRSA): 0.25 µg/mL | MIC (S. aureus; S. aureus MMX 9203, MRSA): 0.12 µg/mL | MIC (S. aureus; S. aureus MMX 9204, MRSA): 0.25 µg/mL | MIC (S. aureus; S. aureus MMX 9205, MRSA): 0.25 µg/mL | MIC (K. pneumoniae; K. pneumoniae MMX 4622, KPC-2): 0.25 µg/mL | MIC (K. pneumoniae; K. pneumoniae MMX 4623, KPC-2): 64 µg/mL | MIC (K. pneumoniae; K. pneumoniae MMX 4653, KPC-3): 1 µg/mL | MIC (K. pneumoniae; K. pneumoniae MMX 4683, KPC-2): 1 µg/mL | MIC (K. pneumoniae; K. pneumoniae MMX 4684, ESBL): 0.25 µg/mL | MIC (K. pneumoniae; K. pneumoniae MMX 4685, ESBL): 1 µg/mL | MIC (K. pneumoniae; K. pneumoniae MMX 4694, KPC-3): 8 µg/mL | MIC (K. pneumoniae; K. pneumoniae MMX 5979, NDM-1): >64 µg/mL | CLSI QC range of MIC (P. aeruginosa [10]): (0.5-2) μg/mL | MIC (E. faecalis; E. faecalis MMX 8960): >64 µg/mL | MIC (E. faecalis; E. faecalis MMX 8961): 8 µg/mL | MIC (E. faecalis; E. faecalis MMX 8962): >64 µg/mL | MIC (E. faecium; E. faecium MMX 485): >64 µg/mL | MIC (E. faecium; E. faecium MMX 752): >64 µg/mL | MIC (A. baumannii; A. baumannii MMX 2592, MDR): >64 µg/mL | MIC (A. baumannii; A. baumannii MMX 2593, MDR): >64 µg/mL | MIC (A. baumannii; A. baumannii MMX 3372, MDR): 0.5 µg/mL | MIC (A. baumannii; A. baumannii MMX 3373, Sensitive): 0.12 µg/mL | MIC (A. baumannii; A. baumannii MMX 4651 (NCTC 13304), MDR, OXA-27): 8 µg/mL
